Test results: patent US11800869B2, “Use of 6-oxo-1,4,5,6-tetrahydropyridazine-3-carboxylic acid, 1-methyl 6-oxo-1,4,5,6-tetrahydropyridazine-3-carboxylic acid and 1-alkyl-6-oxo-1,4,5,6-tetrahydropyridazine-3-carboxylic acid for improving growth performance in plants” (Advanced Crop Chem LLP, priority 2020, dated 2023)

Legend:
Assay type in all cases: in vivo
[1] = test system: Winter wheat variety AWC 13; experiment: Wheat seed treatment, greenhouse, root biomass (Example 1); details: seed treatment 10g per 1 ton of seed; greenhouse 21° C; 30 days after planting; untreated 0.65
Method: Wheat seeds were treated with 6-oxo-1,4,5,6 tetrahydropyridazine-3-carboxylic acid (THP) and treated plants to examine the impact on shoot and root biomass. Winter wheat variety AWC 13 seeds were treated with either 6-oxo-1,4,5,6-tetrahydropyridazine-3-carboxylic acid (THP) or 1-methyl 6-oxo-1,4,5,6 tetrahydropyridazine-3-carboxylic acid (MTHP) at an effective rate of 10g diluted in 2 L water plus 0.25% Nouryon wetter and applied to 1 ton of seed. These seed were planted in coarse river sand and grown in a greenhouse under ambient light at the greenhouse at 21° C. Plants were irrigated every other day with water containing 50% strength Hoaglands solution. Plants were assessed for emergence and biomass accumulation 30 days after planting. The plants from seeds treated with 6-oxo-1,4,5,6-tetrahydropyridizin-3-carboxylic acid or 1-methyl 6-oxo-1,4,5,6 tetrahydropyridazine-3-carboxylic acid had larger root biomasses (0.83, 0.85 g, dry weight/plant) compared with plants from untreated seeds (0.65 g dry weight/plant).

[2] = test system: wheat plants (Variety Skyfall); experiment: Foliar treatment of greenhouse grown wheat, foliar and root biomass (Example 4); details: foliar treatment, 30 days later, Zadocks growth stage 22-24
Method: Wheat, corn and pepper seeds were treated with 6-oxo-1,4,5,6-tetrahydropyridizine-3-carboxylic acid (THP) using the same methodology and growth conditions as described in example 1 and the resulting plants were also treated with a light foliar cover spray using an electric hand-held sprayer. (100 g in 200 L water plus 0.25% Nouryon wetter) of 6-oxo-1,4,5,6 tetrahydropyridazine-3-carboxylic acid (30 days post emergence (wheat at Zadoks GS 14 (see FIG. 1), maize at V2, Pepper at 3-4 leaf stage) and then assessed for root and shoot biomass 45 days later. At 75 days post planting the plants were assessed for root and shoot biomass as measured with dry weight. Greenhouse grown wheat plants (Variety […]) were given foliar treatment of 1-methyl 6-oxo-1,4,5,6 tetrahydropyridazine-3-carboxylic acid (MTHP) or 6-oxo-1,4,5,6 tetrahydropyridazine-3-carboxylic acid (THP), utilizing the same methodology as in example 2. Foliar and root biomass were determined 30 days later at Zadocks growth stage 22-24.

[3] = test system: Wheat plants (Variety AWC 13); experiment: Foliar treatment of wheat, foliar and root dry biomass (Example 5); details: foliar treatment at Zadoks GS 15-20, 30 days after application, mean of 10 plants
Source text: Wheat plants (Variety AWC 13) were given a foliar treatment of 6-oxo-1,4,5,6-tetrahydropyridazine-3-carboxylic acid(THP) or 1-methyl 6-oxo-1,4,5,6 tetrahydropyridazine-3-carboxylic acid (MTHP) and their foliar and root dry biomass determined 30 days after application. The foliar applications were applied at approximately at Zadoks GS 15-20 (see FIG. 1) and assessed 30 days later at Zadoks GS 22-24 (also shown in FIG. 1).

[4] = test system: Field grown wheat plants (Var: AWC 13); experiment: Foliar treatment of field grown wheat (Example 6); details: foliar treatment at Zadoks GS 25-26, 100 g in 200 L water, mean of 10 plants
Method: Field grown wheat plants (Var: AWC 13) were given foliar treatment at Zadoks GS 25-26 (FIG. 1) of 6-oxo-1,4,5,6 tetrahydropyridazine-3-carboxylic acid (THP) or 1-methyl 6-oxo-1,4,5,6 tetrahydropyridazine-3-carboxylic acid (MTHP) both at 100 g in 200 L water plus 0.25% Nouryon wetter. Plants were grown under standard UK wheat growing cultural practice (https://andb.org.uk/wheatgg). Yield was assessed at harvest.

Wheat = Wheat seed treatment, field grown, root biomass (Example 7); details: untreated 0.66
Method: Wheat seeds were treated with 1-methyl 6-oxo-1,4,5,6 tetrahydropyridazine-3-carboxylic acid treated plants to examine the impact on root biomass for field grown plants. Wheat seeds were treated with 1-methyl 6-oxo-1,4,5,6 tetrahydropyridazine-3-carboxylic acid and field grown. The plants from seeds treated with 1-methyl 6-oxo-1,4,5,6 tetrahydropyridazine-3-carboxylic acid had larger root biomass (0.84 g dry weight/plant) compared with plants from untreated seeds (0.66 g dry weight/plant).

In the case of `CN1N=C(C(=O)O)CCC1=O` [MTHP, 1-methyl 6-oxo-1,4,5,6 tetrahydropyridazine-3-carboxylic acid], the root biomass [1] is reported as 0.85 g, dry weight/plant, the “Dry Weight Shoot” value ([2]; Con 0.55) is reported as 0.7 g and the “Dry Weight Root” value ([2]; Con 1.03) is reported as 1.64 g. The “Dry Weight Shoot” value ([3]; Con 0.47) was 0.98, the “Dry Weight Root” value ([3]; Con 0.65) was 2.06 and the “Dry Weight Shoot” value ([4]; Con 0.47) was 0.98. The “Dry Weight Root” value ([4]; Con 0.65) was 2.06 and the root biomass (Wheat) was 0.84 g dry weight/plant.
